Laboratory results: the kinase profiling compilation of Christmann-Franck et al. (2016)

Assays:
Assay in all cases: radiometric filter-binding kinase assay
[1] = target: STK3 (human) (UniProt Q13188)
[2] = target: GCK (human) (UniProt Q12851)
[3] = target: EEF2K (human) (UniProt O00418)
[4] = target: PKN2 (human) (UniProt Q16513)
[5] = target: PIM1 (human) (UniProt P11309)
[6] = test system: RPS6KB1 (human), P23443 [T412E]
[7] = target: MAPK9 (human) (UniProt P45984)
[8] = target: CDK2 CCNA2 (human) (UniProt P20248+P24941)
[9] = target: MARK4 (human) (UniProt Q96L34)
[10] = target: NEK6 (human) (UniProt Q9HC98)
[11] = target: YES1 (human) (UniProt P07947)
[12] = target: MAP3K9 (human) (UniProt P80192)
[13] = target: PIM3 (human) (UniProt Q86V86)
[14] = target: MARK3 (human) (UniProt P27448)
[15] = target: CHEK1 (human) (UniProt O14757)
CHEK1 (human), sequence (O14757 whole entry, looked up): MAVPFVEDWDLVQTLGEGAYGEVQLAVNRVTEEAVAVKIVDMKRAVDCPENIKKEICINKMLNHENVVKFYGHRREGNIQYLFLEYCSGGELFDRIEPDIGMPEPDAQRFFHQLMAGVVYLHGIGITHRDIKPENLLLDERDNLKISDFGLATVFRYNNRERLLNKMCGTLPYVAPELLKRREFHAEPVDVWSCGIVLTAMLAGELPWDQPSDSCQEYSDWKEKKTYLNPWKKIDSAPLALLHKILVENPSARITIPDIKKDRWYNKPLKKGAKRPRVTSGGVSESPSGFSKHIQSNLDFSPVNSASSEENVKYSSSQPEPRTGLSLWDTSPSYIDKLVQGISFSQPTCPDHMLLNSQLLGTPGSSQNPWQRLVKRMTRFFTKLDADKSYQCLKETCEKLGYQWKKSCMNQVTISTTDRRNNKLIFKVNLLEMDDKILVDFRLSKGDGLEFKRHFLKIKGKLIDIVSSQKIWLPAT

[16] = target: PAK6 (human) (UniProt Q9NQU5)
[17] = target: SRPK1 (human) (UniProt Q96SB4)
[18] = target: IKBKB (human) (UniProt O14920)
[19] = target: CSNK2A1 (human) (UniProt P68400)
[20] = target: BTK (human) (UniProt Q06187)
[21] = target: TBK1 (human) (UniProt Q9UHD2)
[22] = target: MAPKAPK2 (human) (UniProt P49137)
[23] = target: INSRR (human) (UniProt P14616)
[24] = target: EPHA4 (human) (UniProt P54764)
EPHA4 (human), sequence (P54764 whole entry, looked up): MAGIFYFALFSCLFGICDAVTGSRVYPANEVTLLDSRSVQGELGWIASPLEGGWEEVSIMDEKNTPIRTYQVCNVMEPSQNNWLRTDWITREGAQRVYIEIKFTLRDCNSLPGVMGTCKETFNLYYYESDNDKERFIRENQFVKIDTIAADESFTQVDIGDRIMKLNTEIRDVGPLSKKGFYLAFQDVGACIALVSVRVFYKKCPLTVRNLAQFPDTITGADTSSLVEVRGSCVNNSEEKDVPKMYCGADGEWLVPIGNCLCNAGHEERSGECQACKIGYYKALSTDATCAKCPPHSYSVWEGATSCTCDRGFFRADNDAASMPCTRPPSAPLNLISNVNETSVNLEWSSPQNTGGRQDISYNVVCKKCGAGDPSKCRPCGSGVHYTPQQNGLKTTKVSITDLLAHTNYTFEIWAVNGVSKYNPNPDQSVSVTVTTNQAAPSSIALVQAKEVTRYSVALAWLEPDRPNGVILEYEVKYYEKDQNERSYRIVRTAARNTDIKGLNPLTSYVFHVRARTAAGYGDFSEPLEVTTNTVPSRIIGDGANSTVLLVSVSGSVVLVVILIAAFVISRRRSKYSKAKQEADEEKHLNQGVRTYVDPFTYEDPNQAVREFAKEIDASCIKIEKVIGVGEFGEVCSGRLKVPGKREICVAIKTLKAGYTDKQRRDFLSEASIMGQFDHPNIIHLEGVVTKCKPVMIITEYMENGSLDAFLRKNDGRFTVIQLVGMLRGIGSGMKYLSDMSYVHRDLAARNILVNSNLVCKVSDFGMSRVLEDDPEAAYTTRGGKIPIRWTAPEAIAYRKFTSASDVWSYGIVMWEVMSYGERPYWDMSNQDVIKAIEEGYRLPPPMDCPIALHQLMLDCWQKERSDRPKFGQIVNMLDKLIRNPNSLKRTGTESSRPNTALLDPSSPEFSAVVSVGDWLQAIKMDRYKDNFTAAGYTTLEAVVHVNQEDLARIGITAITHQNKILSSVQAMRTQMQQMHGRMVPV

[25] = target: DAPK1 (human) (UniProt P53355)
[26] = target: MAP2K2 (human) (UniProt P36507)
MAP2K2 (human), sequence (P36507 whole entry, looked up): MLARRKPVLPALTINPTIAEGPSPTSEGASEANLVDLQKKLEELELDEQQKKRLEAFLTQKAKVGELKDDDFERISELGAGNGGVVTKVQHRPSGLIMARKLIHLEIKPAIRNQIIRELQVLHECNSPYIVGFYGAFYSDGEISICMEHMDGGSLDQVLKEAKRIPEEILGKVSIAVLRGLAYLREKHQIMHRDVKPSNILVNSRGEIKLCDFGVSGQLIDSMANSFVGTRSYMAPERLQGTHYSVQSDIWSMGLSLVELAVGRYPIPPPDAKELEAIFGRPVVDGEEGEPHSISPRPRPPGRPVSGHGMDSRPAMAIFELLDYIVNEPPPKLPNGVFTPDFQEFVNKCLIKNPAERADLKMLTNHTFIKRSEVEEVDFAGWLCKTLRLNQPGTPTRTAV

[27] = target: MAP2K1 (human) (UniProt Q02750)
[28] = target: MKNK2 (human) (UniProt Q9HBH9)
[29] = target: EPHB4 (human) (UniProt P54760)
[30] = target: PIM2 (human) (UniProt Q9P1W9)
PIM2 (human), sequence (Q9P1W9 whole entry, looked up): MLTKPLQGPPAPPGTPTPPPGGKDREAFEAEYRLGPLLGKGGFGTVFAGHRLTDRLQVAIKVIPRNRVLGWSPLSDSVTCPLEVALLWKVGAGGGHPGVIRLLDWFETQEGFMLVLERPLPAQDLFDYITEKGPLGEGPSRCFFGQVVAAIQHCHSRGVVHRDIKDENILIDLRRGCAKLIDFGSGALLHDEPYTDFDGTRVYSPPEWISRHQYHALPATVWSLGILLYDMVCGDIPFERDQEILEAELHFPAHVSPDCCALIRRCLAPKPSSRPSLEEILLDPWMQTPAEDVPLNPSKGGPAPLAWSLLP

[31] = target: EPHB1 (human) (UniProt P54762)
[32] = target: MAP3K5 (human) (UniProt Q99683)
[33] = test system: PAK2 (human), Q13177 [T402E]
[34] = target: TTK (human) (UniProt P33981)
[35] = target: MYLK (human) (UniProt Q15746)
MYLK (human), sequence (Q15746 whole entry, looked up): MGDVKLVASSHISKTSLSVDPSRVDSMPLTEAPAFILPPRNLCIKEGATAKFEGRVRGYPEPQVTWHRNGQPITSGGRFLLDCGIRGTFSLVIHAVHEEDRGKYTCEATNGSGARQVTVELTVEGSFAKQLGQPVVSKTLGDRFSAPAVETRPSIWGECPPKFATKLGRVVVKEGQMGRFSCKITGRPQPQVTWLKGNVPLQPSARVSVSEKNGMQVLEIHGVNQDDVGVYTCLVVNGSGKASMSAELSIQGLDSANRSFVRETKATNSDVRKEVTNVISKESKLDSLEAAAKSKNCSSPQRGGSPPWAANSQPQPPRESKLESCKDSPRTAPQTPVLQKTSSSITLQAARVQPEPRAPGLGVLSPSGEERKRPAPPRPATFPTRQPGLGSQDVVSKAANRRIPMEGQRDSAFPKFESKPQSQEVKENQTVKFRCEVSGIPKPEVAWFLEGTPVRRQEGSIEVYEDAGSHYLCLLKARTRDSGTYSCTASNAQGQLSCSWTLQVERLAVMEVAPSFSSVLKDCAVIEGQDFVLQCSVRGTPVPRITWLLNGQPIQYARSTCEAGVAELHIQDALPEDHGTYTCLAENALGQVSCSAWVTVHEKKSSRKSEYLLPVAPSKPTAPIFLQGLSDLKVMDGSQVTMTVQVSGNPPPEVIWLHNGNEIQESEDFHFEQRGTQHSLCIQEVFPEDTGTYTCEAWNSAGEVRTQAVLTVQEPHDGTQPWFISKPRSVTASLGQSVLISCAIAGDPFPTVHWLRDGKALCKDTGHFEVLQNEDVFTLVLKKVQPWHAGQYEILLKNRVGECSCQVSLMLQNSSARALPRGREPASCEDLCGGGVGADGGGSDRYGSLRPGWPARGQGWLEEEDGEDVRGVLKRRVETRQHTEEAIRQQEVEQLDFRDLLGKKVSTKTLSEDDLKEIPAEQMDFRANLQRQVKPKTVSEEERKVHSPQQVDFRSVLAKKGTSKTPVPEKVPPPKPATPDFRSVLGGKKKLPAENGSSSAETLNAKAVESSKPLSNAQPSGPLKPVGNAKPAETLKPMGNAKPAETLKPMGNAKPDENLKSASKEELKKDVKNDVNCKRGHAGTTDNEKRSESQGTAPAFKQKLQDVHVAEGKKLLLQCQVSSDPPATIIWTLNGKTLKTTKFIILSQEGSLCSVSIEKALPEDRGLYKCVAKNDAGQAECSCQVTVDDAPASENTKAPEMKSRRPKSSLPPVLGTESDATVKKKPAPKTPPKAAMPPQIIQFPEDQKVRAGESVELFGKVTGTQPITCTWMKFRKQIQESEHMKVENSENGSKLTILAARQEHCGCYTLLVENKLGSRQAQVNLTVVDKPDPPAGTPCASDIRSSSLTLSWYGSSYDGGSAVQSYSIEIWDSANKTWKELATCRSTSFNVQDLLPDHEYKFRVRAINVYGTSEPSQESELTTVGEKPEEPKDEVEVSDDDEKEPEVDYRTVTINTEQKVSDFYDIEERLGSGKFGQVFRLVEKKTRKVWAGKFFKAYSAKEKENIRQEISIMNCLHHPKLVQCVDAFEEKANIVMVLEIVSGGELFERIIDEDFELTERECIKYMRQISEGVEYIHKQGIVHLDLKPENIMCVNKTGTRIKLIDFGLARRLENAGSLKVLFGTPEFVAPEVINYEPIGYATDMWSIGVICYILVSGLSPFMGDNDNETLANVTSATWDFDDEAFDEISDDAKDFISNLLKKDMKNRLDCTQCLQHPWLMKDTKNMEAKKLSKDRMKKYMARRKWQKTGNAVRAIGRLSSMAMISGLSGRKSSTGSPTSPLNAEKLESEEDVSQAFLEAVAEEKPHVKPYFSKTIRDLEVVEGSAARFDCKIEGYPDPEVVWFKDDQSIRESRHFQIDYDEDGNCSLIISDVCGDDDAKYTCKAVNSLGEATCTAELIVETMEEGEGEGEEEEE

[36] = target: RPS6KA5 KD1 KD2 (human) (UniProt O75582)

RPS6KB1 (human), P23443 [T412E], sequence (P23443 whole entry T412E, looked up): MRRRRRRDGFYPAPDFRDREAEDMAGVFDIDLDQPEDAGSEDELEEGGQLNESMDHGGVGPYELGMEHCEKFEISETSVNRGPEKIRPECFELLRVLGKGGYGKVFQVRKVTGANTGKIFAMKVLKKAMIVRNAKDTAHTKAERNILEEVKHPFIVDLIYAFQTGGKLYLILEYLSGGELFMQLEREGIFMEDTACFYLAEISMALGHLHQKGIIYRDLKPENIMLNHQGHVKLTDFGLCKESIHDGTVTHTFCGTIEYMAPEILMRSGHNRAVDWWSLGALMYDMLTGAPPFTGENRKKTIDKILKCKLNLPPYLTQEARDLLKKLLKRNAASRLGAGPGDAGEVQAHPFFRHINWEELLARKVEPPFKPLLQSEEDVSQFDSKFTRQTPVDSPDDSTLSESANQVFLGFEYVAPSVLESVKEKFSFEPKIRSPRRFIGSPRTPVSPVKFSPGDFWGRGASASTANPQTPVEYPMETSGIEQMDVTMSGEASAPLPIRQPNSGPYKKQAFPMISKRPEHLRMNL

SMILES: O=C(N[C@@H](COc1ccc2[nH]c(=O)[nH]c2c1)c1ccccc1)c1cccn(Cc2ccc(F)c(F)c2)c1=O
- residual activity ([1]; compound 0.1 µM): 102%
- residual activity ([1]; compound 1.0 µM): 105%
- residual activity ([1]; compound 10.0 µM): 100%
- residual activity ([2]; compound 0.1 µM): 102%
- residual activity ([2]; compound 1.0 µM): 101%
- residual activity ([2]; compound 10.0 µM): 94%
- residual activity ([3]; compound 0.1 µM): 95%
- residual activity ([3]; compound 1.0 µM): 103%
- residual activity ([3]; compound 10.0 µM): 107%
- residual activity ([4]; compound 0.1 µM): 108%
- residual activity ([4]; compound 1.0 µM): 113%
- residual activity ([4]; compound 10.0 µM): 103%
- residual activity ([5]; compound 0.1 µM): 101%
- residual activity ([5]; compound 1.0 µM): 105%
- residual activity ([5]; compound 10.0 µM): 76%
- residual activity ([6]; compound 0.1 µM): 103%
- residual activity ([6]; compound 1.0 µM): 97%
- residual activity ([6]; compound 10.0 µM): 98%
- residual activity ([7]; compound 0.1 µM): 93%
- residual activity ([7]; compound 1.0 µM): 97%
- residual activity ([7]; compound 10.0 µM): 95%
- residual activity ([8]; compound 0.1 µM): 90%
- residual activity ([8]; compound 1.0 µM): 91%
- residual activity ([8]; compound 10.0 µM): 95%
- residual activity ([9]; compound 0.1 µM): 150%
- residual activity ([9]; compound 1.0 µM): 143%
- residual activity ([9]; compound 10.0 µM): 83%
- residual activity ([10]; compound 0.1 µM): 104%
- residual activity ([10]; compound 1.0 µM): 100%
- residual activity ([10]; compound 10.0 µM): 98%
- residual activity ([11]; compound 0.1 µM): 104%
- residual activity ([11]; compound 1.0 µM): 105%
- residual activity ([11]; compound 10.0 µM): 95%
- residual activity ([12]; compound 0.1 µM): 119%
- residual activity ([12]; compound 1.0 µM): 102%
- residual activity ([12]; compound 10.0 µM): 50%
- residual activity ([13]; compound 0.1 µM): 103%
- residual activity ([13]; compound 1.0 µM): 108%
- residual activity ([13]; compound 10.0 µM): 95%
- residual activity ([14]; compound 0.1 µM): 99%
- residual activity ([14]; compound 1.0 µM): 93%
- residual activity ([14]; compound 10.0 µM): 83%
- residual activity ([15]; compound 0.1 µM): 96%
- residual activity ([15]; compound 1.0 µM): 94%
- residual activity ([15]; compound 10.0 µM): 95%
- residual activity ([16]; compound 0.1 µM): 102%
- residual activity ([16]; compound 1.0 µM): 102%
- residual activity ([16]; compound 10.0 µM): 89%
- residual activity ([17]; compound 0.1 µM): 107%
- residual activity ([17]; compound 1.0 µM): 114%
- residual activity ([17]; compound 10.0 µM): 101%
- residual activity ([18]; compound 0.1 µM): 102%
- residual activity ([18]; compound 1.0 µM): 99%
- residual activity ([18]; compound 10.0 µM): 99%
- residual activity ([19]; compound 0.1 µM): 111%
- residual activity ([19]; compound 1.0 µM): 103%
- residual activity ([19]; compound 10.0 µM): 107%
- residual activity ([20]; compound 0.1 µM): 109%
- residual activity ([20]; compound 1.0 µM): 108%
- residual activity ([20]; compound 10.0 µM): 110%
- residual activity ([21]; compound 0.1 µM): 109%
- residual activity ([21]; compound 1.0 µM): 132%
- residual activity ([21]; compound 10.0 µM): 102%
- residual activity ([22]; compound 0.1 µM): 99%
- residual activity ([22]; compound 1.0 µM): 101%
- residual activity ([22]; compound 10.0 µM): 90%
- residual activity ([23]; compound 0.1 µM): 101%
- residual activity ([23]; compound 1.0 µM): 114%
- residual activity ([23]; compound 10.0 µM): 105%
- residual activity ([24]; compound 0.1 µM): 95%
- residual activity ([24]; compound 1.0 µM): 113%
- residual activity ([24]; compound 10.0 µM): 107%
- residual activity ([25]; compound 0.1 µM): 106%
- residual activity ([25]; compound 1.0 µM): 113%
- residual activity ([25]; compound 10.0 µM): 91%
- residual activity ([26]; compound 0.1 µM): 121%
- residual activity ([26]; compound 1.0 µM): 124%
- residual activity ([26]; compound 10.0 µM): 135%
- residual activity ([27]; compound 0.1 µM): 100%
- residual activity ([27]; compound 10.0 µM): 95%
- residual activity ([28]; compound 0.1 µM): 117%
- residual activity ([28]; compound 10.0 µM): 112%
- residual activity ([29]; compound 1.0 µM): 85%
- residual activity ([29]; compound 10.0 µM): 87%
- residual activity ([30]; compound 0.1 µM): 107%
- residual activity ([30]; compound 1.0 µM): 105%
- residual activity ([30]; compound 10.0 µM): 85%
- residual activity ([31]; compound 0.1 µM): 87%
- residual activity ([31]; compound 1.0 µM): 88%
- residual activity ([31]; compound 10.0 µM): 90%
- residual activity ([32]; compound 0.1 µM): 110%
- residual activity ([32]; compound 1.0 µM): 105%
- residual activity ([32]; compound 10.0 µM): 92%
- residual activity ([33]; compound 0.1 µM): 113%
- residual activity ([33]; compound 1.0 µM): 109%
- residual activity ([33]; compound 10.0 µM): 79%
- residual activity ([34]; compound 0.1 µM): 99%
- residual activity ([34]; compound 1.0 µM): 100%
- residual activity ([34]; compound 10.0 µM): 95%
- residual activity ([35]; compound 0.1 µM): 97%
- residual activity ([35]; compound 1.0 µM): 97%
- residual activity ([35]; compound 10.0 µM): 89%
- residual activity ([36]; compound 0.1 µM): 101%
- residual activity ([36]; compound 1.0 µM): 104%
- residual activity ([36]; compound 10.0 µM): 106%

SMILES: NS(=O)(=O)OC[C@@H]1C[C@@H](n2ccc3c(N[C@H]4CCc5ccccc54)ncnc32)C[C@@H]1O
- residual activity ([1]; compound 1.0 µM): 87%
- residual activity ([1]; compound 10.0 µM): 84%
- residual activity ([2]; compound 1.0 µM): 91%
- residual activity ([2]; compound 10.0 µM): 88%
- residual activity ([3]; compound 1.0 µM): 100%
- residual activity ([3]; compound 10.0 µM): 107%
- residual activity ([4]; compound 1.0 µM): 90%
- residual activity ([4]; compound 10.0 µM): 92%
- residual activity ([5]; compound 10.0 µM): 103%
- residual activity ([6]; compound 1.0 µM): 94%
- residual activity ([6]; compound 10.0 µM): 85%
- residual activity ([7]; compound 1.0 µM): 83%
- residual activity ([7]; compound 10.0 µM): 88%
- residual activity ([8]; compound 1.0 µM): 84%
- residual activity ([8]; compound 10.0 µM): 90%
- residual activity ([9]; compound 1.0 µM): 93%
- residual activity ([9]; compound 10.0 µM): 103%
- residual activity ([10]; compound 10.0 µM): 102%
- residual activity ([11]; compound 10.0 µM): 79%
- residual activity ([12]; compound 1.0 µM): 82%
- residual activity ([12]; compound 10.0 µM): 88%
- residual activity ([13]; compound 10.0 µM): 78%
- residual activity ([14]; compound 1.0 µM): 101%
- residual activity ([14]; compound 10.0 µM): 100%
- residual activity ([15]; compound 1.0 µM): 91%
- residual activity ([15]; compound 10.0 µM): 98%
- residual activity ([16]; compound 1.0 µM): 94%
- residual activity ([16]; compound 10.0 µM): 91%
- residual activity ([17]; compound 1.0 µM): 92%
- residual activity ([17]; compound 10.0 µM): 102%
- residual activity ([18]; compound 1.0 µM): 100%
- residual activity ([18]; compound 10.0 µM): 96%
- residual activity ([19]; compound 1.0 µM): 80%
- residual activity ([19]; compound 10.0 µM): 88%
- residual activity ([20]; compound 10.0 µM): 105%
- residual activity ([21]; compound 10.0 µM): 88%
- residual activity ([22]; compound 1.0 µM): 88%
- residual activity ([22]; compound 10.0 µM): 93%
- residual activity ([23]; compound 1.0 µM): 87%
- residual activity ([23]; compound 10.0 µM): 83%
- residual activity ([24]; compound 10.0 µM): 105%
- residual activity ([25]; compound 1.0 µM): 110%
- residual activity ([25]; compound 10.0 µM): 113%
- residual activity ([26]; compound 1.0 µM): 104%
- residual activity ([26]; compound 10.0 µM): 99%
- residual activity ([27]; compound 1.0 µM): 95%
- residual activity ([27]; compound 10.0 µM): 99%
- residual activity ([28]; compound 10.0 µM): 108%
- residual activity ([29]; compound 1.0 µM): 106%
- residual activity ([29]; compound 10.0 µM): 108%
- residual activity ([30]; compound 10.0 µM): 101%
- residual activity ([31]; compound 10.0 µM): 100%
- residual activity ([32]; compound 1.0 µM): 87%
- residual activity ([32]; compound 10.0 µM): 87%
- residual activity ([33]; compound 1.0 µM): 98%
- residual activity ([33]; compound 10.0 µM): 93%
- residual activity ([34]; compound 1.0 µM): 86%
- residual activity ([34]; compound 10.0 µM): 98%
- residual activity ([36]; compound 1.0 µM): 103%
- residual activity ([36]; compound 10.0 µM): 110%
